Source: ChEMBL document CHEMBL5584362, “Sucurchalasins A and B, Sulfur-Containing Heterodimers of a Cytochalasan and a Macrolide from the Endophytic Fungus Aspergillus spelaeus GDGJ-286” (J Nat Prod, 2024)
Values after ≈ are worked out from the molar mass of the structure shown. Active and inactive are the calls of the source. The calls are words filed in the database; no cut-off is given here.

Experiments:
Vibrio parahaemolyticus [1] = experiment: Antibacterial activity against Vibrio parahaemolyticus measured after 20 to 45 mins by broth microdilution method; type: functional; conditions: time 20-45 min
Escherichia coli [2] = experiment: Antibacterial activity against Escherichia coli measured after 20 to 45 mins by broth microdilution method; type: functional; conditions: time 20-45 min
Bacillus subtilis = experiment: Antibacterial activity against Bacillus subtilis measured after 20 to 45 mins by broth microdilution method; type: functional; conditions: time 20-45 min
Shigella dysenteriae [3] = experiment: Antibacterial activity against Shigella dysenteriae measured after 20 to 45 mins by broth microdilution method; type: functional; conditions: time 20-45 min
A2780 [4] = experiment: Cytotoxicity against human A2780 cells by MTT assay; type: functional, cell-based
Enterococcus faecalis = experiment: Antibacterial activity against Enterococcus faecalis measured after 20 to 45 mins by broth microdilution method; type: functional; conditions: time 20-45 min
HepG2 = experiment: Cytotoxicity against human HepG2 cells by MTT assay; type: functional, cell-based
SK-OV-3 = experiment: Cytotoxicity against human SK-OV-3 cells by MTT assay; type: functional, cell-based
Staphylococcus aureus [5] = experiment: Antibacterial activity against Staphylococcus aureus measured after 20 to 45 mins by broth microdilution method; type: functional; conditions: time 20-45 min
HeLa = experiment: Cytotoxicity against human HeLa cells by MTT assay; type: functional, cell-based
Salmonella typhi [6] = experiment: Antibacterial activity against Salmonella typhi measured after 20 to 45 mins by broth microdilution method; type: functional, Salmonella enterica subsp. enterica serovar Typhi; conditions: Salmonella enterica; time 20-45 min
Vibrio parahaemolyticus [7] = experiment: Antibacterial activity against Vibrio parahaemolyticus at 25 ug/ml measured after 20 to 45 mins by broth microdilution method; type: functional, organism-based; conditions: dose 25.0 µg/ml, time 20-45 min
Staphylococcus aureus [8] = experiment: Antibacterial activity against Staphylococcus aureus at 25 ug/ml measured after 20 to 45 mins by broth microdilution method; type: functional, organism-based; conditions: dose 25.0 µg/ml, time 20-45 min
Escherichia coli [9] = experiment: Antibacterial activity against Escherichia coli at 25 ug/ml measured after 20 to 45 mins by broth microdilution method; type: functional, organism-based; conditions: dose 25.0 µg/ml, time 20-45 min
Salmonella typhi [10] = experiment: Antibacterial activity against Salmonella typhi at 25 ug/ml measured after 20 to 45 mins by broth microdilution method; type: functional, organism-based; conditions: Salmonella enterica subsp. enterica serovar Typhi; dose 25.0 µg/ml, time 20-45 min
Shigella dysenteriae [11] = experiment: Antibacterial activity against Shigella dysenteriae at 25 ug/ml measured after 20 to 45 mins by broth microdilution method; type: functional, organism-based; conditions: dose 25.0 µg/ml, time 20-45 min
A2780 [12] = experiment: Induction of apoptosis in human A2780 cells assessed as late apoptotic cells at 1 uM measured after 48 hrs by Annexin V-FITC/PI staining based FACS analysis (reference value: 2.32 to 2.4%); type: functional
A2780 [13] = experiment: Induction of apoptosis in human A2780 cells assessed as necrotic cells at 1 uM measured after 48 hrs by Annexin V-FITC/PI staining based FACS analysis (reference value: 1.34 to 3.3%); type: functional
A2780 [14] = experiment: Induction of apoptosis in human A2780 cells assessed as increase in early apoptotic cells measured after 48 hrs by Annexin V-FITC/PI staining based FACS analysis; type: functional, cell-based; conditions: dose 1-9 µM
A2780 [15] = experiment: Induction of apoptosis in human A2780 cells assessed as chromatin condensation at 1 to 9 uM measured after 48 hrs by Hoechst 33258 staining based assay; type: functional, cell-based; conditions: dose 1-9 µM
A2780 [16] = experiment: Induction of apoptosis in human A2780 cells assessed as chromatin fragmentation at 1 to 9 uM measured after 48 hrs by Hoechst 33258 staining based assay; type: functional, cell-based; conditions: dose 1-9 µM
A2780 [17] = experiment: Induction of apoptosis in human A2780 cells assessed as necrotic cells at 9 uM measured after 48 hrs by Annexin V-FITC/PI staining based FACS analysis (reference value: 1.34 to 3.3%); type: functional
A2780 [18] = experiment: Induction of apoptosis in human A2780 cells assessed as viable cells at 1 uM measured after 48 hrs by Annexin V-FITC/PI staining based FACS analysis (reference value: 92.6 to 92.8%); type: functional; conditions: read-out: Activity
A2780 [19] = experiment: Induction of apoptosis in human A2780 cells assessed as increase in late apoptotic cells measured after 48 hrs by Annexin V-FITC/PI staining based FACS analysis; type: functional, cell-based; conditions: dose 1-9 µM
A2780 [20] = experiment: Induction of apoptosis in human A2780 cells assessed as necrotic cells at 3 uM measured after 48 hrs by Annexin V-FITC/PI staining based FACS analysis (reference value: 1.34 to 3.3%); type: functional
A2780 [21] = experiment: Induction of apoptosis in human A2780 cells assessed as early apoptotic cells at 3 uM measured after 48 hrs by Annexin V-FITC/PI staining based FACS analysis (reference value: 1.68 to 1.9%); type: functional
A2780 [22] = experiment: Induction of apoptosis in human A2780 cells assessed as viable cells at 3 uM measured after 48 hrs by Annexin V-FITC/PI staining based FACS analysis (reference value: 92.6 to 92.8%); type: functional; conditions: read-out: Activity
A2780 [23] = experiment: Induction of apoptosis in human A2780 cells assessed as viable cells at 9 uM measured after 48 hrs by Annexin V-FITC/PI staining based FACS analysis (reference value: 92.6 to 92.8%); type: functional; conditions: read-out: Activity
A2780 [24] = experiment: Induction of apoptosis in human A2780 cells assessed as early apoptotic cells at 9 uM measured after 48 hrs by Annexin V-FITC/PI staining based FACS analysis (reference value: 1.68 to 1.9%); type: functional
A2780 [25] = experiment: Induction of apoptosis in human A2780 cells assessed as early apoptotic cells at 1 uM measured after 48 hrs by Annexin V-FITC/PI staining based FACS analysis (reference value: 1.68 to 1.9%); type: functional
A2780 [26] = experiment: Induction of apoptosis in human A2780 cells assessed as late apoptotic cells at 3 uM measured after 48 hrs by Annexin V-FITC/PI staining based FACS analysis (reference value: 2.32 to 2.4%); type: functional
A2780 [27] = experiment: Induction of apoptosis in human A2780 cells assessed as late apoptotic cells at 9 uM measured after 48 hrs by Annexin V-FITC/PI staining based FACS analysis (reference value: 2.32 to 2.4%); type: functional

SMILES | MIC (Vibrio parahaemolyticus [1]) | MIC (Escherichia coli [2]) | MIC (Bacillus subtilis) | MIC (Shigella dysenteriae [3]) | IC50 (A2780 [4]) | MIC (Enterococcus faecalis) | IC50 (HepG2) | IC50 (SK-OV-3) | MIC (Staphylococcus aureus [5]) | IC50 (HeLa) | MIC (Salmonella typhi [6]) | Activity (Vibrio parahaemolyticus [7]) | Activity (Staphylococcus aureus [8]) | Activity (Escherichia coli [9]) | Activity (Salmonella typhi [10]) | Activity (A2780 [12]) | Activity (A2780 [13]) | Activity (A2780 [14]) | Activity (A2780 [15]) | Activity (A2780 [16]) | other results
CC1=C[C@@H]2/C=C(\C)CCC(=O)[C@@H](O)/C=C/C(=O)[C@]23C(=O)N[C@@H](CC(C)C)[C@@H]3[C@@H]1C | > 25 µg/mL | > 25 µg/mL | > 25 µg/mL | > 25 µg/mL | > 20 µM | > 25 µg/mL | > 20 µM | > 20 µM | > 25 µg/mL | > 20 µM | > 25 µg/mL | – | – | – | – | – | – | – | – | – | –
C[C@H]1CC/C=C\CC(=O)c2c(O)cc(O)cc2CC(=O)O1 | > 25 µg/mL | > 25 µg/mL | > 25 µg/mL | > 25 µg/mL | > 20 µM | > 25 µg/mL | > 20 µM | > 20 µM | > 25 µg/mL | > 20 µM | > 25 µg/mL | – | – | – | – | – | – | – | – | – | –
CC1=C[C@@H]2/C=C(\C)CC[C@@H](O)[C@@H](O)/C=C/C(=O)[C@]23C(=O)N[C@@H](CC(C)C)[C@@H]3[C@@H]1C | – | – | 6.3 µg/mL (≈ 15.7 µM) | – | > 20 µM | 6.3 µg/mL (≈ 15.7 µM) | > 20 µM | > 20 µM | – | > 20 µM | – | inactive | inactive | inactive | inactive | – | – | – | – | – | Activity (Shigella dysenteriae [11]): inactive
CC1=C[C@@H]2/C=C(\C)CC[C@@H](O)C(=O)C[C@@H](S[C@@H]3CCC[C@H](C)OC(=O)Cc4cc(O)cc(O)c4C(=O)C3)C(=O)[C@]23C(=O)N[C@@H](CC(C)C)[C@@H]3[C@@H]1C | – | – | 6.3 µg/mL (≈ 8.7 µM) | 13 µg/mL (≈ 18 µM) | 3.9 µM | 3.1 µg/mL (≈ 4.28 µM) | 15 µM | 13 µM | – | 10 µM | – | inactive | inactive | inactive | inactive | 1.71% | 2.91% | Dose-Dependent Effect | Active | Active | Activity (A2780 [17]): 1.19%; viability at 1 µM (A2780 [18]): 94%; Activity (A2780 [19]): Dose-Dependent Effect; Activity (A2780 [20]): 1.38%; Activity (A2780 [21]): 4.85%; viability at 3 µM (A2780 [22]): 90.9%; viability at 9 µM (A2780 [23]): 27.1%; Activity (A2780 [24]): 56.8%; Activity (A2780 [25]): 1.35%; Activity (A2780 [26]): 2.87%; Activity (A2780 [27]): 14.9%
C[C@H]1CCC/C=C/C(=O)c2c(O)cc(O)cc2CC(=O)O1 [DEHYDROCURVULARIN] | 25 µg/mL (≈ 86.1 µM) | 25 µg/mL (≈ 86.1 µM) | 3.1 µg/mL (≈ 10.7 µM) | 6.3 µg/mL (≈ 21.7 µM) | 4.3 µM | 13 µg/mL (≈ 44.8 µM) | 12 µM | 20 µM | – | 7.9 µM | – | – | inactive | – | inactive | 1.87% | 1.68% | Dose-Dependent Effect | Active | Active | Activity (A2780 [17]): 2.11%; viability at 1 µM (A2780 [18]): 94.2%; Activity (A2780 [19]): Dose-Dependent Effect; Activity (A2780 [20]): 2.09%; Activity (A2780 [21]): 11.1%; viability at 3 µM (A2780 [22]): 80.8%; viability at 9 µM (A2780 [23]): 34.1%; Activity (A2780 [24]): 51.6%; Activity (A2780 [25]): 2.2%; Activity (A2780 [26]): 5.07%; Activity (A2780 [27]): 12.2%
